≈ marks a conversion by molar mass, not a printed value. Where a name gives a salt, the structure may show the parent alone. Read-outs that look alike come from different tables or passages of the source.
What was measured:
[1] = system: Staphylococcus epidermidis; experiment: In vitro broth dilution minimal inhibitory concentration (standard microdilution method); assay type: cell-based; settings: 24 h, read-out: Microdilution Broth MIC
[2] = system: Escherichia coli; experiment: as above; assay type: cell-based; settings: Escherichia coli, read-out: Microdilution Broth MIC
[3] = system: Staphylococcus aureus; experiment: In vivo efficacy of orally administered compounds in mouse intraperitoneal infections; settings: Staphylococcus aureus, po, 168 h, read-out: ED50 (50 percent effective dose)
Experimental: (§1) Determinations of in vivo efficacy are performed by inoculating mice intraperitoneally with cultures of the infecting organism diluted to produce 90-100% mortality in control animals within twenty-four hours. The diluents used were trypticase soy broth for E. coli and 5% aqueous hog gastric mucin for Staphylococcus aureus infections. The compounds are dissolved or suspended in 0.25% aqueous Methocel® (Methocel®: Hydroxypropyl Methylcellulose E15 Premium, Dow Chemical Company) for oral administration or sterile distilled water containing 5% dimethylsulfoxide (Fisher Scientific Company, Fairlawn, N.J.) for subcutaneous administration. The mice are dosed at the time of infection and again at four hours post-infection. Mortality is recorded daily until test termination seven days post infection and the 50 percent effective dose, ED50, is calculated by the Reed-Muench method (Reed, L. G. and Muench, H., "A simple method of estimating fifty percent end points," American Journal of Hygiene, 27, 493-497 (1938).

[4] = system: Staphylococcus aureus; experiment: In vivo efficacy of compounds administered subcutaneously in mouse intraperitoneal infections; settings: sc, 168 h; mouse i.p. Staphylococcus aureus infection; subcutaneous; dosed at infection and 4 h post-infection; 7 days; read-out: ED50 (50 percent effective dose)
Experimental: as §1

[5] = mouse i.p. Staphylococcus aureus infection, oral, dosed at infection and 4 h post-infection, 7 days

SMILES | MIC ([1]; Mueller-Hinton broth, 24-hour) [µg/mL] | MIC ([2]; Mueller-Hinton broth, 24-hour) [µg/mL] | ED50 [3, 5] [mg/kg] | ED50 [4] [mg/kg] | MIC [1] [µg/mL] | MIC ([2]; 24 h) [µg/mL] | ED50 [3] [mg/kg]
CS(=O)(=O)c1ccc(N2CC(CN)OC2=O)cc1 (racemic) [Example 10, (dl)-5-Aminomethyl-3-[4-(methylsulfonyl)phenyl]-2-oxazolidinone trifluoroacetic Acid Salt] | 50 | > 100 | – | – | – | – | –
CC(C)c1ccc(N2CC(CNC(=O)CN)OC2=O)cc1 (racemic) [Example 157, (dl)-2-Amino-N-[3-[4-(1-methylethyl)phenyl]-2-oxooxazolidin-5-ylmethyl]acetamide] | 50 (≈ 172 µM) | > 200 | 58.9 | 19.6 | – | – | –
CC(=O)NCC1CN(c2ccc(C(C)=NN)cc2)C(=O)O1 (single isomer, unassigned) [Example 131, (l)-N-[3-[4-(1-Hydrazonoethyl)phenyl]-2-oxo-5-oxazolidinylmethyl]acetamide] | 3.1 (≈ 10.7 µM) | 100 (≈ 344 µM) | < 4.4 | < 4.4 | – | – | –
CC(=O)NCC1CN(c2ccc([N+](=O)[O-])cc2[N+](=O)[O-])C(=O)O1 (single isomer, unassigned) [Example 147, (l)-N-[3-(2,4-Dinitrophenyl)-2-oxooxazolidin-5-ylmethyl]acetamide] | – | – | – | – | 200 (≈ 617 µM) | > 200 | 44.4
CC(=O)NCC1CN(c2ccc(NC(C)=O)cc2)C(=O)O1 (single isomer, unassigned) [Example 150, (l)-N-[3-[4-(Acetylamino)phenyl]-2-oxooxazolidin-5-ylmethyl]acetamide] | 200 (≈ 687 µM) | > 200 | 56.9 | 12.5 | – | – | –
CON=C(C)c1ccc(N2CC(CNC(C)=O)OC2=O)cc1 (single isomer, unassigned) [Example 160, (l)-N-[3-(4-Acetylphenyl)-2-oxooxazolidin-5-ylmethyl]acetamide Oxime, methyl ether] | 12.5 (≈ 40.9 µM) | > 200 | < 4.4 | < 4.4 | – | – | –
CC(=O)NCC1CN(c2ccc(CBr)cc2)C(=O)O1 (single isomer, unassigned) [Example 166, (l)-N-[3-[4-(Bromomethyl)phenyl]-2-oxooxazolidin-5-ylmethyl]acetamide] | 64 (≈ 196 µM) | > 128 | – | – | – | – | –
CSc1ccc(N2CC(CN=[N+]=[N-])OC2=O)cc1 (centres unmarked) [Example 4] | > 200 | > 200 | 43.3 | – | – | – | –
CC(C)c1ccc(N2CC(CN)OC2=O)cc1 (centres unmarked) [Example 17] | > 200 | > 200 | > 120 | 24.9 | – | – | –
CS(=O)(=O)c1ccc(N2CC(CNC(=O)C(F)(F)F)OC2=O)cc1 (centres unmarked) [Example 28] | 12.5 (≈ 34.1 µM) | 50 (≈ 136 µM) | 71.3 | – | – | – | –
CS(=O)(=O)c1ccc(N2CC(CNC(=O)c3ccccc3)OC2=O)cc1 (centres unmarked) [Example 34] | 25 (≈ 66.8 µM) | > 200 | > 120 | 49.6 | – | – | –
CNC(=O)NCC1CN(c2ccc(S(C)(=O)=O)cc2)C(=O)O1 (centres unmarked) [Example 35] | 25 (≈ 76.4 µM) | 200 (≈ 611 µM) | 35.8 | – | – | – | –
CC(=O)NCC1CN(c2cccc(C(C)=O)c2)C(=O)O1 (centres unmarked) [Example 37] | 200 (≈ 724 µM) | > 200 | 62.9 | – | – | – | –
C=CC(=O)NCC1CN(c2ccc(SC)cc2)C(=O)O1 (centres unmarked) [Example 40] | 12.5 (≈ 42.8 µM) | > 200 | 53.1 | – | – | – | –
COC(=O)NCC1CN(c2ccc(C(F)(F)F)cc2)C(=O)O1 (centres unmarked) [Example 42] | 100 (≈ 314 µM) | > 200 | 45.5 | 20.9 | – | – | –
COc1ccc(N2CC(CNC(C)=O)OC2=O)cc1 (centres unmarked) [Example 44] | 100 (≈ 378 µM) | > 200 | 30.3 | – | – | – | –
COC(OC)C(=O)NCC1CN(c2ccc(SC)cc2)C(=O)O1 (centres unmarked) [Example 73] | > 200 | > 200 | 59.5 | – | – | – | –
CS(=O)(=O)c1ccc(N2CC(CNC(N)=O)OC2=O)cc1 (centres unmarked) [Example 77] | 200 (≈ 638 µM) | > 200 | – | 70.9 | – | – | –
C=CC(=O)NCC1CN(c2ccc([S+](C)[O-])cc2)C(=O)O1 (centres unmarked) [Example 91] | 25 (≈ 81.1 µM) | > 200 | 50.7 | – | – | – | –
CSc1ccc(N2CC(CNC(=O)CCCl)OC2=O)cc1 (centres unmarked) [Example 92] | 50 (≈ 152 µM) | > 200 | 31 | – | – | – | –
CC(=O)NCC1CN(c2ccc(C(O)CO)cc2)C(=O)O1 (centres unmarked) [Example 104] | 32 (≈ 109 µM) | > 128 | – | – | – | – | –

Second part, led by results:

MIC ([1]; Mueller-Hinton broth, 24-hour) [µg/mL] | MIC ([2]; Mueller-Hinton broth, 24-hour) [µg/mL] | SMILES | ED50 [3, 5] [mg/kg] | ED50 [4] [mg/kg] | MIC [1] [µg/mL] | MIC ([2]; 24 h) [µg/mL] | ED50 [3] [mg/kg]
> 100 | > 100 | NCC1CN(c2ccc(S(N)(=O)=O)cc2)C(=O)O1 (single isomer, unassigned) [Example 12, (l)-4-[5-(Aminomethyl)-2-oxooxazolidin-3-yl]benzenesulfonamide] | 179 | 89.8 | – | – | –
> 100 | > 100 | NS(=O)(=O)c1ccc(N2CC(CNC=O)OC2=O)cc1 (single isomer, unassigned) [Example 24, (l)-N-[3-[4-(Aminosulfonyl)phenyl]-2-oxooxazolidin-5-ylmethyl]formamide] | 74.3 | – | – | – | –
3.2 (≈ 10.5 µM) | > 200 | CC(=O)NCC1CN(c2ccc(SCC#N)cc2)C(=O)O1 (single isomer, unassigned) [Example 154, (l)-N-[3-[4-(Cyanomethylthio)phenyl]-2-oxooxazolidin-5-ylmethyl]acetamide] | – | – | – | – | –
32 (≈ 96.6 µM) | > 128 | CC(=O)NCC1CN(c2ccc(C(=O)C=CN(C)C)cc2)C(=O)O1 (single isomer, unassigned) [Example 162] | 11.3 | 20.9 | – | – | –
3.1 (≈ 9.99 µM) | > 200 | CC(=O)NCC1CN(c2ccc(SCCO)cc2)C(=O)O1 (single isomer, unassigned) [Example 167, (l)-N-[3-[4-(2-Hydroxyethylthio)phenyl]-2-oxooxazolidin-5-ylmethyl]acetamide] | 68.2 | 10.8 | – | – | –
> 128 | > 128 | CC(=O)c1ccc(N2CC(CN)OC2=O)cc1 (single isomer, unassigned) [Example 170, (l)-3-(4-Acetylphenyl)-5-(aminomethyl)-2-oxazolidinone hydrochloride] | 32.3 | 25.3 | – | – | –
0.5 (≈ 1.5 µM) | 64 (≈ 191 µM) | CC(=O)NCC1CN(c2ccc(C(=O)COC(C)=O)cc2)C(=O)O1 (single isomer, unassigned) [Example 183, (l)-N-[3-[4-(Acetyloxyacetyl)phenyl]-2-oxo-5-oxazolidinylmethyl]acetamide] | 9.1 | 3.4 | – | – | –
4 (≈ 13.7 µM) | > 128 | COC(=O)c1ccc(N2CC(CNC(C)=O)OC2=O)cc1 (single isomer, unassigned) [Example 184, (l)-4-[(5-Acetylaminomethyl)-2-oxo-3-oxazolidinyl]benzoic acid methyl ester] | > 60 | 37.5 | – | – | –
> 128 | > 128 | CC(=O)NCC1CN(c2ccc(C=O)cc2)C(=O)O1 (single isomer, unassigned) [Example 185, (l)-N-[3-(4-Formylphenyl)-2-oxo-5-oxazolidinylmethyl]acetamide] | – | 35.9 | – | – | –
200 (≈ 768 µM) | > 200 | CC(=O)c1ccc(N2CC(CN=[N+]=[N-])OC2=O)cc1 (centres unmarked) [Example 5] | 172 | 41.2 | – | – | –
100 (≈ 384 µM) | > 200 | CC(C)c1ccc(N2CC(CN=[N+]=[N-])OC2=O)cc1 (centres unmarked) [Example 7] | 24.2 | 33.7 | – | – | –
> 200 | > 200 | CC(=O)c1ccc(N2CC(CN)OC2=O)cc1 (centres unmarked) [Example 15] | 40 | 24.9 | – | – | –
12.5 (≈ 36.7 µM) | 100 (≈ 294 µM) | CCCC(=O)NCC1CN(c2ccc(S(C)(=O)=O)cc2)C(=O)O1 (centres unmarked) [Example 29] | 88.7 | – | – | – | –
37.5 (≈ 114 µM) | > 200 | COC(=O)NCC1CN(c2ccc(S(N)(=O)=O)cc2)C(=O)O1 (centres unmarked) [Example 45] | > 120 | 9.6 | – | – | –
50 (≈ 140 µM) | > 200 | CCCOC(=O)NCC1CN(c2ccc(S(C)(=O)=O)cc2)C(=O)O1 (centres unmarked) [Example 70] | 51.7 | – | – | – | –
100 (≈ 269 µM) | > 200 | COC(OC)C(=O)NCC1CN(c2ccc(S(C)(=O)=O)cc2)C(=O)O1 (centres unmarked) [Example 74] | 96.6 | – | – | – | –
> 200 | > 200 | CCOC(OCC)C(=O)NCC1CN(c2ccc(SC)cc2)C(=O)O1 (centres unmarked) [Example 75] | 130 | – | – | – | –
> 200 | > 200 | CCOC(OCC)C(=O)NCC1CN(c2ccc(S(C)(=O)=O)cc2)C(=O)O1 (centres unmarked) [Example 76] | 58 | – | – | – | –
> 200 | > 200 | CS(=O)(=O)c1ccc(N2CC(CNC(=O)C(N)c3ccccc3)OC2=O)cc1 (centres unmarked) [Example 78] | – | 67.1 | – | – | –
50 (≈ 145 µM) | > 200 | C[S+]([O-])c1ccc(N2CC(CNC(=O)CCCl)OC2=O)cc1 (centres unmarked) [Example 93] | > 120 | – | – | – | –
12.5 (≈ 43.4 µM) | > 50 | CC(=O)NCC1CN(c2ccc(C#CCO)cc2)C(=O)O1 (centres unmarked) [Example 103] | – | – | – | – | –
64 (≈ 242 µM) | > 128 | CC(=O)NCC1CN(c2ccc(CO)cc2)C(=O)O1 (centres unmarked) [Example 106] | – | – | – | – | –

— patent US4705799A, “Aminomethyl oxooxazolidinyl benzenes useful as antibacterial agents” (E. I. Du Pont de Nemours and Company, priority 1985, dated 1987)
